Experimental data taken from ChEMBL document CHEMBL1201862, “PubChem BioAssay data set” (2004).
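The compound was tested at five concentrations on cells cultured in 96-well plates, with a 48-hour exposure period. GI50 = concentration required for 50% inhibition of growth.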 Calls of active or inactive are those of the source. Rule as the data show it: active = GI50 up to about 1.1 µM and inactive = higher.

Legend:
Assay in all cases: NCI-60 cell line screen, 48 h
NCI-H226 = system: NCI-H226
SF-268 = system: SF-268
HCT-116 = system: HCT-116
MOLT-4 = system: MOLT-4
SK-OV-3 = system: SK-OV-3
MDA-MB-231 = system: MDA-MB-231
HCC 2998 = system: HCC 2998
MDA-MB-435 = system: MDA-MB-435
OVCAR-5 = system: OVCAR-5
T47D = system: T47D
CAKI-1 = system: CAKI-1
NCI-H522 = system: NCI-H522
SF-539 = system: SF-539
NCI/ADR-RES = system: NCI/ADR-RES
KM12 = system: KM12
HT-29 = system: HT-29
U-251 = system: U-251
COLO 205 = system: COLO 205
IGROV-1 = system: IGROV-1
Hs-578T = system: Hs-578T

Structure (SMILES) | GI50 (NCI-H226) | GI50 (SF-268) | GI50 (HCT-116) | GI50 (MOLT-4) | GI50 (SK-OV-3) | GI50 (MDA-MB-231) | GI50 (HCC 2998) | GI50 (MDA-MB-435) | GI50 (OVCAR-5) | GI50 (T47D) | GI50 (CAKI-1) | GI50 (NCI-H522) | GI50 (SF-539) | GI50 (NCI/ADR-RES) | GI50 (KM12) | GI50 (HT-29) | GI50 (U-251) | GI50 (COLO 205) | GI50 (IGROV-1) | GI50 (Hs-578T)
CC1=NN2C(=N)/C(=C/c3ccccc3)C(=O)N=C2S1 | > 100 µM (inactive) | > 100 µM (inactive) | > 100 µM (inactive) | > 100 µM (inactive) | > 100 µM (inactive) | > 100 µM (inactive) | > 100 µM (inactive) | > 100 µM (inactive) | > 100 µM (inactive) | > 100 µM (inactive) | > 100 µM (inactive) | > 36.9 µM (inactive) | > 100 µM (inactive) | > 33.1 µM (inactive) | > 100 µM (inactive) | > 100 µM (inactive) | > 100 µM (inactive) | > 100 µM (inactive) | > 100 µM (inactive) | > 100 µM (inactive)
N=C(N)N/N=C/c1c(-c2ccc(Cl)c([N+](=O)[O-])c2)nc2sccn12 | 1.92 µM (inactive) | 1.92 µM (inactive) | 1.37 µM (inactive) | 1.71 µM (inactive) | 1.78 µM (inactive) | 1.74 µM (inactive) | 1.6 µM (inactive) | 0.6 µM (active) | 1.71 µM (inactive) | 0.493 µM (active) | 1.69 µM (inactive) | 2.01 µM (inactive) | 1.82 µM (inactive) | > 100 µM (inactive) | 0.861 µM (active) | 1.52 µM (inactive) | 1.67 µM (inactive) | 1.31 µM (inactive) | 1.72 µM (inactive) | 2.05 µM (inactive)
N/C(CCSCCSCC/C(N)=N\O)=N\O | > 100 µM (inactive) | > 100 µM (inactive) | > 100 µM (inactive) | > 100 µM (inactive) | > 100 µM (inactive) | > 100 µM (inactive) | > 100 µM (inactive) | > 100 µM (inactive) | > 100 µM (inactive) | > 100 µM (inactive) | > 100 µM (inactive) | > 100 µM (inactive) | > 100 µM (inactive) | > 100 µM (inactive) | > 100 µM (inactive) | > 100 µM (inactive) | > 100 µM (inactive) | > 100 µM (inactive) | > 100 µM (inactive) | > 100 µM (inactive)
Cc1c(C)c2c(c(N)c1C#N)C(=O)N(O)C2=O | > 100 µM (inactive) | > 100 µM (inactive) | > 100 µM (inactive) | > 100 µM (inactive) | > 100 µM (inactive) | > 100 µM (inactive) | > 100 µM (inactive) | > 100 µM (inactive) | > 100 µM (inactive) | > 100 µM (inactive) | > 100 µM (inactive) | > 100 µM (inactive) | > 100 µM (inactive) | > 100 µM (inactive) | > 100 µM (inactive) | > 100 µM (inactive) | > 100 µM (inactive) | > 100 µM (inactive) | > 100 µM (inactive) | > 100 µM (inactive)
N#C/C(=C\NC(=S)c1ccncc1)c1nc2ccccc2s1 | > 100 µM (inactive) | > 100 µM (inactive) | > 100 µM (inactive) | 31.2 µM (inactive) | > 100 µM (inactive) | 39.6 µM (inactive) | 21.7 µM (inactive) | > 100 µM (inactive) | > 100 µM (inactive) | 37.9 µM (inactive) | > 100 µM (inactive) | > 100 µM (inactive) | > 100 µM (inactive) | > 100 µM (inactive) | > 100 µM (inactive) | > 100 µM (inactive) | 98.4 µM (inactive) | > 100 µM (inactive) | > 100 µM (inactive) | > 100 µM (inactive)
COc1ccc(OC)c(/C=C/c2cnnc3ccccc23)c1 | 5.73 µM (inactive) | 4.79 µM (inactive) | 3.4 µM (inactive) | 2.65 µM (inactive) | 5.5 µM (inactive) | 9.46 µM (inactive) | 5.27 µM (inactive) | 0.638 µM (active) | > 10 µM (inactive) | > 10 µM (inactive) | 4.61 µM (inactive) | 3.66 µM (inactive) | 2.39 µM (inactive) | 2.39 µM (inactive) | 2.8 µM (inactive) | 5.31 µM (inactive) | 5.19 µM (inactive) | 4.1 µM (inactive) | > 10 µM (inactive) | 1.43 µM (inactive)
CC[C@@]1(OC(=O)C(N)CCCCN)C(=O)OCc2c1cc1n(c2=O)Cc2cc3ccccc3nc2-1 (stereo not given in full) | 0.111 µM (active) | 0.0169 µM (active) | 0.0415 µM (active) | < 0.01 µM (active) | 0.105 µM (active) | 1.53 µM (inactive) | 0.41 µM (active) | 0.293 µM (active) | 0.238 µM (active) | 0.0326 µM (active) | < 0.0152 µM (active) | 0.0454 µM (active) | 0.0203 µM (active) | 0.0354 µM (active) | 0.35 µM (active) | 0.133 µM (active) | 0.0161 µM (active) | 0.389 µM (active) | 0.212 µM (active) | 4.52 µM (inactive)
